The text below walks through data of patent US5661182A, “Method for lowering oxygen affinity of hemoglobin in redcell suspensions, in whole blood and in vivo” (Virginia Commonwealth University, priority 1995, dated 1997).

“Also recorded” adds a separate entry of the source.

The target of data set [1] is hemoglobin in human red blood cells (Homo sapiens, UniProt P68871+P69905). Briefly: Calculated oxygen delivery index of human red blood cell suspensions (ΔY). The data set is classed as cell-based. The following applies: human RBC, effector 0.5 mM. The text has this:
(§1) L3,5 and L3,4,5 were provided by Dr. Lalezari (Montefiore Hospital, New York); RSR-4 [2-[4-[[(3,5-dichloroanilino)carbonyl]methyl]phenoxy]-2-methylpropionic acid]and RSR13 [2-4-[[(3,5- dimethylanilino)carbonyl]methyl]phenoxy]-2-methylpropionic acid] have been synthesized following the procedure described in Randad et al. (J. Med. Chem. 34,752 (1991)). Human serum albumin (HSA), bovine serum albumin (BSA) and 4,4'diisothiocyanatostilbene-2,2'-disulfonate (DIDS) were purchased from Sigma (St. Louis, Mo.). Due to their low solubility in aqueous buffer, 10 mM stock solutions of the compounds were prepared in a slight exccess of sodium bicarbonate and back-titrated to pH 7.4. For example, RSR-4 or RSR-13 was dissolved at 60° C. in a 140 mM NaCl and 50 mM bis-Tris buffer at room temperature upon progressive addition of NaHCO3 to obtain 10 mM stock solutions. The pH was carefully adjusted to 7.4 after complete solubilization and before use of the solutions. Fresh solutions were prepared each week. Stock solutions of DIDS (1 mM) were prepared, in the dark, on the day of the experiments in a pH 7.4 buffer. Human serum albumin (defatted HSA) and bovine serum albumin (BSA) were prepared freshly as 1 mM stock solutions, pH 7.4. Equilibrium Measurements. The allosteric modulation of the effectors on freshly prepared solutions of hemoglobin or red cell suspensions was measured by the change in p50, the partial pressure of oxygen for half-saturation. Oxygen equilibrium curves (OEC) were carried out with the Hemox analyzer (TCS, Southampton, Pa.) under the following conditions: pH 7.4, 140 mM NaCl and 50 mM bis-Tris buffer at 37° C. In all experiments, the concentration of hemoglobin in the red cell suspensions was 20-25 μM hemoglobin tetramer (Hb4) as measured by Drabkin's method (cyanomethemoglobin) at the end of each recording. The final concentration of the allosteric effector in the cuvette was 0.5 mM, resulting in an effector/Hb4 ratio of 20 in the absence of albumin. OEC were also made in the same buffer containing 12.5, 25, 50, and 100 μM HSA (for human red cell suspensions) or BSA (for bovine cell suspensions). The serum albumin experiments were carried out with traces of an antifoaming agent. This agent has no deleterious effect on the red cell suspensions. The molar ratio of albumin to tetrameric hemoglobin was varied from 0.5 (at 12.5 μM HSA) to 4 (at 100 μM HSA); in whole blood this ratio is approximately 0.3 (0.7 mM albumin plus plasma proteins/2.25 mM Hb4). Therefore, the concentration of albumin used in the present studies was always larger relative to tetrameric hemoglobin than that found in whole blood.
In FIG. 2, curve (1) is the control, curve (2) is the suspension plus 0.5 mM RSR-4, curve (3) is the suspension plus 0.5 mM RSR-4 plus 50 μM HSA, and curve […] is the suspension plus 0.5 mM RSR-4 plus 100 μM HSA. The concentration ratios of albumin/Hb are above those found in vivo. For example, in curve (3) serum albumin is about six times and in curve (4) about twelve times in excess above the concentration ratio of albumin/Hb found in vivo. The vertical lines indicate the physiological pO2 values in the arterial blood (90 mmHg) and in the mixed venous blood (40 mmHg). The change in oxygen saturation between these two lines allows an estimation of the capability of the red blood cells to deliver oxygen to tissues (ΔY (%), as discussed below in conjunction with Table 4).
In Vivo Estimates for Percent of Oxygen Delivery. Table 4 presents the calculated oxygen delivery index for red blood cell suspensions in the presence or absence of 0.5 mM L3,5 or RSR-4. The experimental conditions for the experiments of Table 4 were the same as those used for Table 1. The oxygen delivery index was calculated from the experimental oxygen binding curves as the difference in hemoglobin oxygen saturation (percent) corresponding to the pO2 in the arterial blood (90 mmHg) and that in the mixed venous blood (40 mMHg). […]

For data set [2], the target named is HbA (normal adult hemoglobin) (Homo sapiens, UniProt P68871+P69905). Kind of data set: Oxygen equilibrium of isolated human Hb solutions (HbA p50). The following applies: human Hb solution; for p50 shift at increasing chloride concentration: 0.5 mM, chloride 0-400 mM; for HbA(p50): effector 0.5 mM, pH 7.2, 100 mM NaCl, 25 °C. The class given is biochemical.
Text: as §1
Bovine Red Cell Studies. […]

The subject of data set [3] is purified Hb Yakima. Briefly: Effect on purified Hb Yakima. The data set is classed as biochemical, human.
In data set [4] the test system is HbA/Yakima red blood cells. Kind of data set: Calculated oxygen delivery index of HbA/Yakima red blood cells (ΔY). The data set is classed as cell-based, human. Conditions: for ΔY (oxygen delivery index): HbA/Yakima RBC, 0.5 mM. As for the experimental part: Human blood was collected on heparin from healthy nonsmoking donors. Bovine blood was provided by Pr Delpech, INA (Paris-Grignon). Red blood cells were washed three times in isotonic buffer, kept at 4° C., and used within 24 h after sampling. Hemoglobin Yakima, a high-oxygen-affinity variant [α2 β2 99 (G1) Asp>>His], was obtained from a known heterozygous carrier. Fresh Yakima red cells were processed in the same way as described above.
In Vivo Estimates for Percent of Oxygen Delivery. Table 4 presents the calculated oxygen delivery index for red blood cell suspensions in the presence or absence of 0.5 mM L3,5 or RSR-4. The experimental conditions for the experiments of Table 4 were the same as those used for Table 1. The oxygen delivery index was calculated from the experimental oxygen binding curves as the difference in hemoglobin oxygen saturation (percent) corresponding to the pO2 in the arterial blood (90 mmHg) and that in the mixed venous blood (40 mMHg). HbA/Yakima red blood cells were obtained from a heterozygous carrier of the high-affinity Hb variant.

In data set [5] the test system is human red cells. Kind of data set: Hemolysis of human red cells in vitro. The class given is cell-based.

HbA (normal adult hemoglobin), sequence (P69905 whole entry): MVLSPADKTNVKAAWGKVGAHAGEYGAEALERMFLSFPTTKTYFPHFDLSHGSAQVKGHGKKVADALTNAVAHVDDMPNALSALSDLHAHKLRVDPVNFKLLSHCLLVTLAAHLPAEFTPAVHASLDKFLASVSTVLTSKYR
HbA (normal adult hemoglobin), sequence (P68871 whole entry): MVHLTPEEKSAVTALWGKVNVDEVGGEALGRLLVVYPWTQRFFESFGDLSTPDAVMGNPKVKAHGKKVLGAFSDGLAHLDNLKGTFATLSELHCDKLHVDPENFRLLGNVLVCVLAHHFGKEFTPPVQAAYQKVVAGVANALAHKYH
hemoglobin in human red blood cells, sequence (P69905 whole entry): as the sequence (P69905 whole entry) above
hemoglobin in human red blood cells, sequence (P68871 whole entry): as the sequence (P68871 whole entry) above

Take `CC(C)(Oc1ccc(NC(=O)Nc2cc(Cl)cc(Cl)c2)cc1)C(=O)O` [L3,5, reference compound]: the “ΔY (oxygen delivery index)” value in data set [1] (50 μM HSA) was 30%; in data set [1] (100 μM HSA), 25%; in data set [1] (no HSA) it was 42%. Moreover, the “p50 shift at increasing chloride concentration” value in data set [2] was “identical at all chloride concentrations”. In data set [2], the “HbA(p50)” value was determined as 47 mmHg. Besides, the “state of purified Hb Yakima in the presence of effector” value in data set [3] is reported as “remains locked in the high-affinity R-state”.

For the compound `CC(C)(Oc1ccc(CC(=O)Nc2cc(Cl)cc(Cl)c2)cc1)C(=O)O` [RSR-4, 2-[4-[[(3,5-dichloroanilino)carbonyl]methyl]phenoxy]-2-methylpropionic acid], the “ΔY (oxygen delivery index)” value is 39% in data set [1] (50 μM HSA); 34% in data set [1] (100 μM HSA); 41.5% in data set [1] (no HSA); 19% in data set [4] (50 μM HSA); 22% in data set [4] (no HSA). The “oxygen delivery restoration” value in data set [4] (red cells containing 47% Hb Yakima) is “able to restore an almost normal oxygen delivery; also recorded: almost normal oxygen delivery index”. For the same compound, the “p50 shift at increasing chloride concentration” value in data set [2] is given as “identical at all chloride concentrations”. In addition, the “HbA(p50)” value in data set [2] is reported as 35.5 mmHg. For the same compound, the “state of purified Hb Yakima in the presence of effector” value in data set [3] was “remains locked in the high-affinity R-state”. For the same compound, the hemolysis result in data set [5] is “No hemolysis”.
